Measurements reported in patent US9096594B2, “Kinase inhibitors and methods of use thereof” (priority 2012, dated 2015).
pIC50, pKd: −log10 of the molar value. Like-named read-outs stand apart in the source and are kept apart here.

Tests used:
GSK3β [1] = target: T1, GSK3β (Homo sapiens (Human), UniProt P49841); assay: biochemical
Procedure: Human GSK3β as a GST fusion expressed in baculoviral system was purchased from BPS Bioscience (San Diego, Calif.). […] Reactions were incubated at room temperature for 60 minutes. 2.5 μL/well of ADP-Glo (Promega, V9103) was added with BioRAPTR, and incubated at room temperature for 40 minutes followed by addition of 5 μL/well of ADP-Glo detection reagent (Promega, V9103) with Combi nL (Thermo, Waltham, Mass.) and incubation at room temperature for 30 minutes. The plates were read on a ViewLux (PerkinElmer, Waltham, Mass.) for luminescence. Data were scaled using the positive and neutral controls and fitted for IC50 as described below.
100 mL/well compounds were pinned. […] Incubated at room temperature for 60 minutes. Added 20 μL/well of ADP-glo (Promega, V9103) with Combi, and incubated at room temperature for 40 minutes. Added 40 μL/well of ADP-glo (Promega, V9103) with Combi, incubated at room temperature for 30 minutes. Read on Envision for luminescence.

GSK3α [2] = target: T2, GSK3α (Homo sapiens (Human), UniProt P49840); assay: biochemical
Procedure: GSK3β Microfluidic Mobility-Shift Assay
(§1) Reactions were terminated by the addition of 10 mM EDTA. Substrate and product were separated electrophoretically and fluorescence intensity of the substrate and product was determined by Labchip EZ Reader II (Caliper Life Sciences, MA). The kinase activity was measured as percent conversion. The reactions were performed in duplicate for each sample. […] The results were analyzed by Genedata Assay Analyzer. The percent inhibition was plotted against the compound concentration and the IC50 value was determined from the logistic dose-response curve fitting.

GSK3β [3] = target: T1, GSK3β; assay: biochemical; remark: listed apart in the source
Procedure: GSK3β Microfluidic Mobility-Shift Assay
as §1

GSK3β [4] = target: T1, GSK3β; assay: biochemical; remark: listed apart in the source
CK1δ = CK1δ (Homo sapiens (Human), UniProt P48730); assay: biochemical
Source text: Approximately 20,000 Response Units (RU) of anti GST-antibody (GE Healthcare Life Sciences) were immobilized on Flow Cell (FC) 1 and FC2 of a new, freshly conditioned CM5 Sensor Chip (GE Healthcare Life Sciences) in a Biacore T100 instrument utilizing the immobilization wizard of the T100 software package. Approximately 1,500 RU of recombinant GST (GE Healthcare Life Sciences) was then captured on FC1 utilizing the capture wizard protocol of the T100 software package. FC1 is used as a reference subtraction point for this and all SPR assays. Approximately 2,700 RU of recombinant GST-CK1δ was then captured on FC2 utilizing the capture wizard protocol of the T100 software package. FC2 is used as the active flowcell for this and all SPR assays. The analyte plate is generated in dose response fashion in TBS buffer containing a final concentration of 2% DMSO, with a final analyte concentration of 10 μM, 100 nM and 10 nM. A zero value is determined by running injections of buffer containing only 2% DMSO and no analyte. All injections are run in duplicate and are reference subtracted from FC1. A method consisting of a 60 second contact time and 60 second wash time with a flow rate of 30 μL/min was employed. […] Analysis of compounds was done using the 1:1 binding model and affinity measurements in the Biacore T100 evaluation software package.
Conditioning new chip: PBS immobilization buffer was loaded into buffer shelf and insert buffer line A. Unused CM5 sensor chip was loaded into instrument per user manual. Chip was primed with 6 minutes of buffer injection at 30 μL/min.
Primed chip again as described above. Generated anti GST antibody solution by mixing 4.5 μL anti GST antibody (GE Healthcare Life Sciences, GST Capture Kit) with 95.5 μL immobilization buffer (GE Healthcare Life Sciences, GST Capture Kit). Put solution into 700 μL small vial and cap. Repeated. Placed both vials in reagent rack 1 of Biacore T100 instrument and insert into machine per user manual. Initiated immobilization of anti GST antibody by utilizing the immobilization Wizard protocol of Biacore T100 software. Immobilized approximately 20,000 Response Units (RU) of anti GST antibody on FC1 and FC2. […] Inserted buffer line A. Repeated prime procedure. Generated GST protein solution by mixing 2 μL of recombinant GST (GE Healthcare Life Sciences, GST Capture Kit) with 98 μL TBS 2% DMSO buffer. Generated GST-CK1δ protein solution by mixing 5 μL of recombinant GST-CK1δ with 95 μL TBS 2% DMSO running buffer. Placed GST protein solution in position B1 on reagent rack 1. Placed GST-CK1δ protein solution in position Cl on reagent rack 1. Initiated a manual injection run and inject for 30 seconds at 5 μL/min GST protein solution on FC1 to generate reference flow cell. […] Captured approximately 1500 RU GST protein on FC1. Captured approximately 2700 RU GST-CK1δ protein on FC2.
An analyte plate was generated for the assay. Using a standard deep volume 384 well plate, placed 100 μL of a 10 μM analyte in TBS 2% DMSO solution wells A1 and A2. Placed 100 μL of a 50 nM analyte in TBS 2% DMSO solution in wells A3 and A4. Placed 100 μL of a 10 nM analyte in TBS 2% DMSO solution in wells A5 and A6. Placed 100 μL of TBS 2% DMSO running buffer in wells A7 and A8. Repeated steps for subsequent analytes. Placed analyte plate in Biacore T100 per user manual.

GSK3α [5] = target: T2, GSK3α
Procedure: GSK3β Microfluidic Mobility-Shift Assay
as §1

GSK3β [6] = target: T1, GSK3β
Procedure: GSK3β Microfluidic Mobility-Shift Assay
as §1

CDK5/p25 = CDK5/p25 (Homo sapiens (Human), UniProt Q00535)
CDK5/p25, sequence (Q00535 whole entry, species assumed): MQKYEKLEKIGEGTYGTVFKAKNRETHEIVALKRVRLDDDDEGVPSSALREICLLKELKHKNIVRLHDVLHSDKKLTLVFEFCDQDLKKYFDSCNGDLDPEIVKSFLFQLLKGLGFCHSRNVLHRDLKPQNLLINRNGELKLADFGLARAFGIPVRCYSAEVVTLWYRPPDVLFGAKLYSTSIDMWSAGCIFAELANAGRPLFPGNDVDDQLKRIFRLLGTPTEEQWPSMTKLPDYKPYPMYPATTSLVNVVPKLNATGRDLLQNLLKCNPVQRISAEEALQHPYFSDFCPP
CDK5/p25, sequence (Q15078 99-307 partner, species assumed): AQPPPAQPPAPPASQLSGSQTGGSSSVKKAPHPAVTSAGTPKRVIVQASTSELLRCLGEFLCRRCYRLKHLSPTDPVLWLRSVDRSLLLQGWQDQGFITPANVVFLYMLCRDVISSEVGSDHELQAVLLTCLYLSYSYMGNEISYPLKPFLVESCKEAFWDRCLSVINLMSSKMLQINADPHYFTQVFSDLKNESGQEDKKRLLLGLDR
Procedure: Biochemical characterization of these synthesized compounds were assayed against GSK3β and CDK5/p25, with CDK5/p25 serving as a counter target of GSK3β selectivity. […] The effects of these compounds on survival of SH-SY5Y pathophysiology cells were also monitored.

T1 sequence (P49841 whole entry): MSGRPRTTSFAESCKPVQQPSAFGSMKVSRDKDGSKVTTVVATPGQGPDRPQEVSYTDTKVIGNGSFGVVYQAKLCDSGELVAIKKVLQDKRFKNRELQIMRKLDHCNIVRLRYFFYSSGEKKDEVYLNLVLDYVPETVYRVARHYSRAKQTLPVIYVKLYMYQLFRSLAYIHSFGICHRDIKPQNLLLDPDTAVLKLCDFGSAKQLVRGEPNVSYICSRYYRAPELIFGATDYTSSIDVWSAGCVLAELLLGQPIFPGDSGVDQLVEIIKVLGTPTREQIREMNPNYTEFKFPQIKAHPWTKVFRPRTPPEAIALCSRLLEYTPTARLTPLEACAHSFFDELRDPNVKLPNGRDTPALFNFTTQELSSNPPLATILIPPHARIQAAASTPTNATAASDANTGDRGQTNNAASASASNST
CK1δ, sequence (P48730 whole entry): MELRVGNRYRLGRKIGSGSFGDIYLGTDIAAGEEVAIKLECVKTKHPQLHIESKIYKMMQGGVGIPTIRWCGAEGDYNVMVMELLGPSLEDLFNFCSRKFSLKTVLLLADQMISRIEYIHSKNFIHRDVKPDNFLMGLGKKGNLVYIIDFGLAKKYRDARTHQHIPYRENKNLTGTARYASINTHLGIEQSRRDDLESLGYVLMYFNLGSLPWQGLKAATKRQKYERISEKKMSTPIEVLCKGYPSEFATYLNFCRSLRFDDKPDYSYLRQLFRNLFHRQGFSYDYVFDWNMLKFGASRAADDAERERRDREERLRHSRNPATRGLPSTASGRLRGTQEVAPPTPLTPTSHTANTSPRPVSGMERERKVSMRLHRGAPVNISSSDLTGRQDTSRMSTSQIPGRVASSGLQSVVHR
T2 sequence (P49840 whole entry): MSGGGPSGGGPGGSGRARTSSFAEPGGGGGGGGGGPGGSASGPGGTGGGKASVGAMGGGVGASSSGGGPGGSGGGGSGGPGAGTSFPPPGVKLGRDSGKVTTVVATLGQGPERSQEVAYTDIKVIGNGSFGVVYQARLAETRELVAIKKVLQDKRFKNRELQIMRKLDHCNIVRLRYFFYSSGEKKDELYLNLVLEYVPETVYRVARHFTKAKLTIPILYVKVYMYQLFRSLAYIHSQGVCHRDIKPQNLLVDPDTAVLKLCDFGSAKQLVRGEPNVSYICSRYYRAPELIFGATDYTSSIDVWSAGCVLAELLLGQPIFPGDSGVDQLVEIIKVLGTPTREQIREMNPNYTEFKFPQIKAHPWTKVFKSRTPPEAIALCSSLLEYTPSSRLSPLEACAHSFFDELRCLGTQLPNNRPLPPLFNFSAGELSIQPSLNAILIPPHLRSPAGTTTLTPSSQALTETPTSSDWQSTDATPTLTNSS

Structure (SMILES) | pIC50 (GSK3β [1]) | pIC50 (GSK3α [2]) | pIC50 (GSK3β [3]) | pKd (GSK3β [4]) | pKd (CK1δ) | pIC50 (GSK3α [5]) | pIC50 (GSK3β [6]) | ADP Glo Assay GSK3β vs CDK5 fold selectivity (CDK5/p25) [X]
Cc1[nH]nc2c1C(c1cccs1)C1=C(CC(C)(C)CC1=O)N2 (racemic) [Compound 5, 3,7,7-trimethyl-4-(thiophen-2-yl)-6,7,8,9-tetrahydro-1H-pyrazolo[3,4-b]quinolin-5(4H)-one] | 6.00 to 7.00 | 6.00 to 7.00 | 6.00 to 7.00 | 6.00 to 7.00 | 6.00 to 7.00 |  |  | 
Cc1[nH]nc2c1[C@H](c1ccccc1C(F)(F)F)C1=C(CC(C)(C)CC1=O)N2 (racemic) [Compound 28, 3,7,7-trimethyl-4-(2-(trifluoromethyl)phenyl)-6,7,8,9-tetrahydro-2H-pyrazolo[3,4-b]quinolin-5(4H)-one] | > 7.00 |  |  |  |  | > 7.00 | > 7.00 | 12
Cc1[nH]nc2c1C(c1ccsc1)C1=C(CC(C)(C)CC1=O)N2 (stereo not drawn) [Compound 8, 3,7,7-trimethyl-4-(thiophen-3-yl)-6,7,8,9-tetrahydro-1H-pyrazolo[3,4-b]quinolin-5(4H)-one] | 5.30 to 6.00 | 6.00 to 7.00 | 6.00 to 7.00 | 6.00 to 7.00 | 6.00 to 7.00 |  |  | 
Cc1[nH]nc2c1C(c1ccc(Cl)s1)C1=C(CC(C)(C)CC1=O)N2 (stereo not drawn) [Compound 9, 4-(5-chlorothiophen-2-yl)-3,7,7-trimethyl-6,7,8,9-tetrahydro-1H-pyrazolo[3,4-b]quinolin-5(4H)-one] | 5.30 to 6.00 | 6.00 to 7.00 | 6.00 to 7.00 | 6.00 to 7.00 | 5.30 to 6.00 |  |  | 
Cc1[nH]nc2c1C(c1cccc(F)c1)C1=C(CC(C)(C)CC1=O)N2 (stereo not drawn) [Compound 11, 4-(3-fluorophenyl)-3,7,7-trimethyl-6,7,8,9-tetrahydro-1H-pyrazolo[3,4-b]quinolin-5(4H)-one] | 6.00 to 7.00 |  | 6.00 to 7.00 | 5.30 to 6.00 | 6.00 to 7.00 | > 7.00 |  | 61
Cc1[nH]nc2c1C(c1ccccc1Cl)C1=C(CC(C)(C)CC1=O)N2 (stereo not drawn) [Compound 13, 4-(2-chlorophenyl)-3,7,7-trimethyl-6,7,8,9-tetrahydro-2H-pyrazolo[3,4-b]quinolin-5(4H)-one] | 6.00 to 7.00 |  |  |  |  | > 7.00 | > 7.00 | 6
Cc1[nH]nc2c1C(c1cccc(Cl)c1)C1=C(CC(C)(C)CC1=O)N2 (stereo not drawn) [Compound 14, 4-(3-chlorophenyl)-3,7,7-trimethyl-6,7,8,9-tetrahydro-1H-pyrazolo[3,4-b]quinolin-5(4H)-one] | 6.00 to 7.00 |  | 6.00 to 7.00 | 6.00 to 7.00 | 6.00 to 7.00 | > 7.00 |  | 
Cc1[nH]nc2c1C(c1ccc(Cl)cc1)C1=C(CC(C)(C)CC1=O)N2 (stereo not drawn) [Compound 15, 4-(4-chlorophenyl)-3,7,7-trimethyl-6,7,8,9-tetrahydro-1H-pyrazolo[3,4-b]quinolin-5(4H)-one] | 5.30 to 6.00 | 6.00 to 7.00 | 5.30 to 6.00 | 5.30 to 6.00 | 5.30 to 6.00 |  |  | 
Cc1[nH]nc2c1C(c1ccccc1Br)C1=C(CC(C)(C)CC1=O)N2 (stereo not drawn) [Compound 16] |  |  |  |  |  | > 7.00 | > 7.00 | 14
COc1cccc(C2C3=C(CC(C)(C)CC3=O)Nc3n[nH]c(C)c32)c1 (stereo not drawn) [Compound 23, 4-(3-methoxyphenyl)-3,7,7-trimethyl-6,7,8,9-tetrahydro-1H-pyrazolo[3,4-b]quinolin-5(4H)-one] | 6.00 to 7.00 | 6.00 to 7.00 | 6.00 to 7.00 | 4.52 to 5.30 | 5.30 to 6.00 |  |  | 
COc1ccc(C2C3=C(CC(C)(C)CC3=O)Nc3n[nH]c(C)c32)cc1 (stereo not drawn) [Compound 24, 4-(4-methoxyphenyl)-3,7,7-trimethyl-6,7,8,9-tetrahydro-1H-pyrazolo[3,4-b]quinolin-5(4H)-one] | 4.52 to 5.30 | 4.52 to 5.30 | 5.30 to 6.00 | 5.30 to 6.00 | 5.30 to 6.00 |  |  | 
CSc1ccccc1C1C2=C(CC(C)(C)CC2=O)Nc2n[nH]c(C)c21 (stereo not drawn) [Compound 25, 3,7,7-trimethyl-4-(2-(methylthio)phenyl)-6,7,8,9-tetrahydro-2H-pyrazolo[3,4-b]quinolin-5(4H)-one] | > 7.00 |  |  |  |  | > 7.00 | > 7.00 | 124
Cc1[nH]nc2c1C(c1ccc3c(c1)OCO3)C1=C(CC(C)(C)CC1=O)N2 (stereo not drawn) [Compound 26, 4-(benzo[d][1,3]dioxol-5-yl)-3,7,7-trimethyl-6,7,8,9-tetrahydro-1H-pyrazolo[3,4-b]quinolin-5(4H)-one] | 5.30 to 6.00 | 6.00 to 7.00 | 5.30 to 6.00 | 5.30 to 6.00 | 6.00 to 7.00 |  |  | 
Cc1[nH]nc2c1[C@@H](c1ccccc1C#N)C1=C(CC(C)(C)CC1=O)N2 [Compound 32, 2-(3,7,7-trimethyl-5-oxo-4,5,6,7,8,9-hexahydro-2H-pyrazolo[3,4-b]quinolin-4-yl)benzonitrile] | 6.00 to 7.00 |  |  |  |  | > 7.00 | > 7.00 | 30
Cc1[nH]nc2c1C(c1cccc(C#N)c1)C1=C(CC(C)(C)CC1=O)N2 (stereo not drawn) [Compound 33, 3-(3,7,7-trimethyl-5-oxo-4,5,6,7,8,9-hexahydro-2H-pyrazolo[3,4-b]quinolin-4-yl)benzonitrile] | > 7.00 |  |  |  |  | > 7.00 | > 7.00 | 131
Cc1[nH]nc2c1C(c1ccc(F)cc1Cl)C1=C(CC(C)(C)CC1=O)N2 (stereo not drawn) [Compound 35, 4-(2-chloro-4-fluorophenyl)-3,7,7-trimethyl-6,7,8,9-tetrahydro-1H-pyrazolo[3,4-b]quinolin-5(4H)-one] | 5.30 to 6.00 | 6.00 to 7.00 | 6.00 to 7.00 | 4.52 to 5.30 | 4.52 to 5.30 |  |  | 7
Cc1[nH]nc2c1C(c1ccccn1)C1=C(CC(C)(C)CC1=O)N2 (stereo not drawn) [Compound 36, 3,7,7-trimethyl-4-(pyridin-2-yl)-6,7,8,9-tetrahydro-1H-pyrazolo[3,4-b]quinolin-5(4H)-one] | 6.00 to 7.00 | 5.30 to 6.00 | 6.00 to 7.00 | 6.00 to 7.00 | 4.52 to 5.30 |  |  | 
Cc1[nH]nc2c1C(c1cccnc1)C1=C(CC(C)(C)CC1=O)N2 (stereo not drawn) [Compound 37, 3,7,7-trimethyl-4-(pyridin-3-yl)-6,7,8,9-tetrahydro-1H-pyrazolo[3,4-b]quinolin-5(4H)-one] | 6.00 to 7.00 | 6.00 to 7.00 | 6.00 to 7.00 | 6.00 to 7.00 | 5.30 to 6.00 |  |  | 
Cc1[nH]nc2c1C(c1ccc(Br)cn1)C1=C(CC(C)(C)CC1=O)N2 (stereo not drawn) [Compound 39, 4-(5-bromopyridin-2-yl)-3,7,7-trimethyl-6,7,8,9-tetrahydro-1H-pyrazolo[3,4-b]quinolin-5(4H)-one] | 5.30 to 6.00 | 5.30 to 6.00 | 5.30 to 6.00 | 4.52 to 5.30 | 4.52 to 5.30 |  |  | 
CC1(C)CC(=O)C2=C(C1)Nc1n[nH]c(C3CC3)c1C2(c1ccccc1)C(F)(F)F (stereo not drawn) [Compound 112] |  |  | > 7.00 |  |  | > 7.00 |  | 

Now from value to molecule:

pIC50 (GSK3β [1]) | pIC50 (GSK3α [2]) | pIC50 (GSK3β [3]) | pKd (GSK3β [4]) | pKd (CK1δ) | pIC50 (GSK3α [5]) | pIC50 (GSK3β [6]) | ADP Glo Assay GSK3β vs CDK5 fold selectivity (CDK5/p25) [X] | Structure (SMILES)
> 7.00 |  |  |  |  | > 7.00 | > 7.00 | 244 | CC1(C)CC(=O)C2=C(C1)Nc1n[nH]c(C(F)(F)F)c1C2(C)c1ccccc1 (racemic) [Compound 68, 4,7,7-trimethyl-4-phenyl-3-(trifluoromethyl)-6,7,8,9-tetrahydro-2H-pyrazolo[3,4-b]quinolin-5(4H)-one]
5.30 to 6.00 | 6.00 to 7.00 | 6.00 to 7.00 | 4.52 to 5.30 | 4.52 to 5.30 |  |  |  | Cc1[nH]nc2c1C(c1ccn[nH]1)C1=C(CC(C)(C)CC1=O)N2 (stereo not drawn) [Compound 40, 3,7,7-trimethyl-4-(1H-pyrazol-5-yl)-6,7,8,9-tetrahydro-1H-pyrazolo[3,4-b]quinolin-5(4H)-one]
 |  |  |  |  |  | > 7.00 | 51 | Cc1[nH]nc2c1C(c1cccc3nonc13)C1=C(CC(C)(C)CC1=O)N2 (stereo not drawn) [Compound 41]
 |  |  |  |  |  | > 7.00 | 35 | CCc1[nH]nc2c1C(c1ccccc1OC)C1=C(CC(C)(C)CC1=O)N2 (stereo not drawn) [Compound 48]
 |  |  |  |  |  | > 7.00 | 14 | COc1ccccc1C1C2=C(CC(C)(C)CC2=O)Nc2n[nH]c(C(C)C)c21 (stereo not drawn) [Compound 49]
 |  |  |  |  |  | > 7.00 | 615 | CC1(C)CC(=O)C2=C(C1)Nc1n[nH]c(C(F)(F)F)c1C2c1ccccc1 (stereo not drawn) [Compound 52]
 |  |  |  |  |  | > 7.00 |  | CC1(C)CC(=O)C2=C(C1)Nc1n[nH]c(C(F)(F)F)c1C2c1ccccc1F (stereo not drawn) [Compound 58]
 |  |  |  |  |  | > 7.00 | 276 | CC1(C)CC(=O)C2=C(C1)Nc1n[nH]c(C(F)(F)F)c1C2c1cccc(F)c1C(F)(F)F (stereo not drawn) [Compound 63]
 |  |  |  |  |  | > 7.00 | 162 | CC1(C)CC(=O)C2=C(C1)Nc1n[nH]c(C(F)(F)F)c1C2c1cc(F)ccc1C(F)(F)F (stereo not drawn) [Compound 64]
 |  | > 7.00 |  |  | > 7.00 |  |  | Cc1[nH]nc2c1C(C)(c1cccc(C(N)=O)c1)C1=C(CC(C)(C)CC1=O)N2 (stereo not drawn) [Compound 90, 3-(3,4,7,7-tetramethyl-5-oxo-4,5,6,7,8,9-hexahydro-2H-pyrazolo[3,4-b]quinolin-4-yl)benzamide]
 |  | > 7.00 |  |  | > 7.00 |  |  | COC(=O)c1[nH]nc2c1C(C)(c1ccccc1)C1=C(CC(C)(C)CC1=O)N2 (stereo not drawn) [Compound 104]
 |  | > 7.00 |  |  | > 7.00 |  |  | CC1(C)CC(=O)C2=C(C1)Nc1n[nH]c(C3CC3)c1C2(C)c1ccccc1F (stereo not drawn) [Compound 116]
